{"source": "patent US20160362399A1", "about": "“ARYL, HETEROARYL, AND HETEROCYCLIC COMPOUNDS FOR TREATMENT OF COMPLEMENT MEDIATED DISORDERS” (Achillion Pharmaceuticals, Inc., priority 2014, published 2016)", "target": "T1, Human factor D (Homo sapiens, UniProt P00746)", "T1 construct": "purified from human serum; purchased Complement Technology, Inc; host or cells: human serum", "T1 sequence (P00746 26-253)": "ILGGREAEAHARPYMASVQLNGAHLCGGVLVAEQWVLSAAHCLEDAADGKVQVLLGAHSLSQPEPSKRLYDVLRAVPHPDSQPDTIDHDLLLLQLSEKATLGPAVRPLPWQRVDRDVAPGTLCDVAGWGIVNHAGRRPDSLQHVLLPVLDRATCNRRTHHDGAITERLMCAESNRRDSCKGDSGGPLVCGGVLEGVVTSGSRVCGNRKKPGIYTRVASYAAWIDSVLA", "test": "Human Factor D Assay", "format": "biochemical", "experimental": "Other standard factor D inhibition assays are also available.\nHuman factor D (purified from human serum, Complement Technology, Inc.) at 80 nM final concentration is incubated with test compound at various concentrations for 5 minutes at room temperature in 50 mM Tris, 1M NaCl, pH 7.5. A synthetic substrate Z-L-Lys-SBzl and DTNB (Ellman's reagent) are added to final concentrations of 100 μM each. The increase in color is recorded at OD405 nm in a microplate in kinetic mode over 30 minutes with 30 second time points in a spectrofluorimeter. IC50 values are calculated by non-linear regression from the percentage of inhibition of complement factor D activity as a function of test compound concentration.", "key": {"[1]": {"conditions": "human factor D 80 nM, substrate Z-L-Lys-SBzl, assay of Example 7, read-out: IC50"}}, "note": "Read-outs that look alike come from different tables or passages of the source."}
{"smiles": "Cc1nc2sccn2c1-c1csc(NC(=O)[C@@H]2C[C@@H](F)CN2C(=O)Cn2nc(C(N)=O)c3cc(-c4ccnnc4)ccc32)n1", "note": "[Compound 58, 1-(2-((2S,4R)-4-fluoro-2-(4-(6-methylimidazo[2,1-b]thiazol-5-yl)thiazol-2-ylcarbamoyl)pyrrolidin-1-yl)-2-oxoethyl)-5-(pyridazin-4-yl)-1H-indazole-3-carboxamide]", "values": [{"measurement": "IC50", "setting": "[1]", "value": "> 10", "unit": "µM"}]}
{"smiles": "NC(=O)c1nn(CC(=O)N2C[C@H](F)C[C@H]2C(=O)Nc2ccccc2-c2nc3ccccc3s2)c2ccc(-c3ccnnc3)cc12", "note": "[Compound 41, 1-(2-((2S,4R)-2-(2-(benzo[d]thiazol-2-yl)phenylcarbamoyl)-4-fluoropyrrolidin-1-yl)-2-oxoethyl)-5-(pyridazin-4-yl)-1H-indazole-3-carboxamide]", "values": [{"measurement": "IC50", "setting": "[1]", "value": "> 10", "unit": "µM"}]}
{"smiles": "NC(=O)c1nn(CC(=O)N2C[C@H](F)C[C@H]2C(=O)N[C@@H]2CCC[C@@H]2OCc2ccccc2)c2ccc(-c3ccnnc3)cc12", "note": "[Compound 51, 1-(2-((2S,4R)-2-((1R,2S)-2-(benzyloxy)cyclopentylcarbamoyl)-4-fluoropyrrolidin-1-yl)-2-oxoethyl)-5-(pyridazin-4-yl)-1H-indazole-3-carboxamide]", "values": [{"measurement": "IC50", "value": "> 10", "unit": "µM"}]}
{"smiles": "CC(=O)c1cn(CC(=O)N2C[C@H](F)C[C@H]2C(=O)Nc2cccc(-c3ccccc3Cl)c2F)c2ccc(C3=CCN(C(C)=O)CC3)cc12", "note": "[Compound 28, (2S,4R)-1-(2-(3-acetyl-5-(1-acetyl-1,2,3,6-tetrahydropyridin-4-yl)-1H-indol-1-yl)acetyl)-N-(2′-chloro-2-fluorobiphenyl-3-yl)-4-fluoropyrrolidine-2-carboxamide]", "values": [{"measurement": "IC50", "value": "< 1", "unit": "µM"}]}
{"smiles": "COc1ncc(-c2ccc3c(c2)c(C(N)=O)nn3CC(=O)N2C[C@H](F)C[C@H]2C(=O)Nc2cccc(-c3ccccc3Cl)c2F)cn1", "note": "[Compound 29, 1-(2-((2S,4R)-2-(2′-chloro-2-fluorobiphenyl-3-ylcarbamoyl)-4-fluoropyrrolidin-1-yl)-2-oxoethyl)-5-(2-methoxypyrimidin-5-yl)-1H-indazole-3-carboxamide]", "values": [{"measurement": "IC50", "setting": "[1]", "value": "< 1", "unit": "µM"}]}
{"smiles": "CC(=O)c1cn(CC(=O)N2[C@@H]3C[C@@H]3C[C@H]2C(=O)Nc2cccc(Br)n2)c2ccc(-c3cnc(C)nc3)cc12", "note": "[Compound 132, (1R,3S,5R)-2-(2-(3-acetyl-5-(2-methylpyrimidin-5-yl)-1H-indol-1-yl)acetyl)-N-(6-bromopyridin-2-yl)-2-azabicyclo[3.1.0]hexane-3-carboxamide]", "values": [{"measurement": "IC50", "setting": "[1]", "value": "< 1", "unit": "µM"}]}
